Here are results for three compounds from article PMC4175002, “The Design and Synthesis of Potent and Selective Inhibitors of Trypanosoma brucei Glycogen Synthase Kinase 3 for the Treatment of Human African Trypanosomiasis” (Journal of Medicinal Chemistry, 2014).

Bounds are passed on as bounds.

One assay has as its target HsCDK2/cyclin A (Homo sapiens, UniProt P24941). Put plainly: Radiometric Flashplate potency assay, HsCDK2/cyclin A. In kind it is biochemical. To be noted: ratio of IC50 values. As to the method:
For compound potency determinations, a radiometric 96-well Flashplate assay (PerkinElmer) was adopted. Compounds were solubilized in DMSO at a top concentration of 3 mM and serially diluted to achieve 10-point titration of final assay concentrations from 30 μM to 0.3 nM with a final DMSO concentration of 1% (v/v). The reaction mixtures contained 1 μM biotinylated GSP2 substrate, 1 μM ATP, 3.7 KBq/well [γ-33P]-ATP and 2.5 nM TbGSK3 in the TbGSK3 kinase assay buffer. GSK3 inhibitors were screened for selectivity assessment also against HsGSK3β. For HsGSK3 assay, the reaction mixes contained 1 μM biotinylated GSP2 substrate, 2 μM ATP, 7.4 KBq/well [γ-33P]-ATP and 15 nM HsGSK3β in the TbGSK3 kinase assay buffer (25 mM Tris-HCl, pH 7.5, 10 mM MgCl2, 5 mM DTT, 0.02% CHAPS, 2 U/mL heparin). For HsCDK2/cyclin A assay, the reaction mixtures contained 1 mM CDK5 biotinylated peptide substrate (Biotin-C6-PKTPKKAKKL), 1 μM ATP, 7.4 KBq/well [γ-^33P]-ATP and 2 nM HsCDK2/cyclin A in the kinase assay buffer (50 mM Tris-HCl, pH 7.5, 10 mM MgCl2, 2 mM DTT, 100 mM NaCl, 0.2 mM EGTA, 0.02% (v/v) Brij35).
For the HsCDK2 assay, the analysis was performed using two different standards (GW8510 and staurosporine) tested respectively five times in a single run and 19 times in 2 independent runs. This implies that a difference of >0.3 in pIC50 can be considered statistically significant for this assay.

A further assay has as its target T1, TBK1 (Homo sapiens, UniProt Q9UHD2).
T1 construct: purchased Division of Signal Transduction Therapy (DSTT), University of Dundee
The assay is described as follows: Mammalian kinase profiling (DSTT panel). In kind it is biochemical. The settings on record: 10 μM; average percentage of remaining activity.

The target of the next assay is T2, CSK (Homo sapiens, UniProt P41240).
T2 construct: purchased Division of Signal Transduction Therapy (DSTT), University of Dundee
T2 sequence (P41240 whole entry): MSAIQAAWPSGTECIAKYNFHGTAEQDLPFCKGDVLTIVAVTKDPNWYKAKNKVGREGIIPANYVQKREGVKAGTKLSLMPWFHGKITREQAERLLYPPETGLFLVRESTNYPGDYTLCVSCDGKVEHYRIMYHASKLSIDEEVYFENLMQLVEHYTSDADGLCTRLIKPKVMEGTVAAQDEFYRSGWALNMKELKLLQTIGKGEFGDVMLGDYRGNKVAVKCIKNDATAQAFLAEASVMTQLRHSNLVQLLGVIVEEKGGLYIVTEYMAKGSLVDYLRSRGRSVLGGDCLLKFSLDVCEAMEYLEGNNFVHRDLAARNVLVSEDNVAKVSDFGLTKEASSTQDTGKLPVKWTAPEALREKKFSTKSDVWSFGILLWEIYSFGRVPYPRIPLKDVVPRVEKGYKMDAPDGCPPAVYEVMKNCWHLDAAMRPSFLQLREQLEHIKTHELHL
The assay is described as follows: Mammalian kinase profiling (DSTT panel). In kind it is biochemical. The settings on record: 10 μM; average percentage of remaining activity.

The next assay has as its target T3, P38b MAPK (Homo sapiens, UniProt Q15759).
T3 construct: purchased Division of Signal Transduction Therapy (DSTT), University of Dundee
Put plainly: Mammalian kinase profiling (DSTT panel). The format is biochemical. The settings on record: 10 μM; average percentage of remaining activity.

A further assay has as its target T4, FGF-R1 (Homo sapiens, UniProt P11362).
T4 construct: purchased Division of Signal Transduction Therapy (DSTT), University of Dundee
The assay is described as follows: Mammalian kinase profiling (DSTT panel). In kind it is biochemical. To be noted: 10 μM; average percentage of remaining activity.

The target in another assay is T5, IKKe (Homo sapiens, UniProt Q14164).
T5 construct: purchased Division of Signal Transduction Therapy (DSTT), University of Dundee
T5 sequence (Q14164 whole entry): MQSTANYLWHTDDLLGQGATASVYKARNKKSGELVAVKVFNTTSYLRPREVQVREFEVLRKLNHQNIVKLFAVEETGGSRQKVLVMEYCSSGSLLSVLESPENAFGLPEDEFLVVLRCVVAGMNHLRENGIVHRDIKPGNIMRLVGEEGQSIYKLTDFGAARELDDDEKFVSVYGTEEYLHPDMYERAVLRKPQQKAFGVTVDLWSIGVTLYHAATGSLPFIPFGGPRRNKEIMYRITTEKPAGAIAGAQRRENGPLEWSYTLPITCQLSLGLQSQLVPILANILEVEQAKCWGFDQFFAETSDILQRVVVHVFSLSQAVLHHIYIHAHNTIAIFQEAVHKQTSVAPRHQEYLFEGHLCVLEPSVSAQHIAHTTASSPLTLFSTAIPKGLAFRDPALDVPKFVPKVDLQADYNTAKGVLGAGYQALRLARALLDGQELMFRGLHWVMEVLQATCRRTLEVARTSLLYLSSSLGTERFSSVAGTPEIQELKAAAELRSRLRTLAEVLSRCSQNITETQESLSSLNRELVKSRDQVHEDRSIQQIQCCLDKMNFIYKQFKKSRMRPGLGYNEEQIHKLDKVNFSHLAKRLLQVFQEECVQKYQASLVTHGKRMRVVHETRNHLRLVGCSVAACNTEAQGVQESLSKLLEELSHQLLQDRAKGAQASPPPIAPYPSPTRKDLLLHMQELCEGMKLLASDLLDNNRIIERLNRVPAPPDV
The assay is described as follows: Mammalian kinase profiling (DSTT panel). In kind it is biochemical. To be noted: 10 μM; average percentage of remaining activity.

For another assay, the system named is panel of 80 human PKs. Put plainly: Mammalian kinase profiling, whole panel (4f, 4m, 4y). The format is biochemical. The settings on record: 10 μM. As to the method:
(§1) To assess the selectivity of the aminopyrazole inhibitors, remaining activity at 10 μM concentration was measured for compounds 4f, 4m, and 4y against a panel of 80 human PKs and for compound 9g against 124 human PKs. […] Compound 4m inhibited only two PKs, namely GSK3β and CDK2, at more than 80%.
(§2) Selected compounds were screened against a panel of mammalian kinases routinely run by the Division of Signal Transduction Therapy (DSTT) at the University of Dundee in duplicate at 10 μM.[32] Enzymes included in the panel and assay conditions are reported in the literature. All biochemical assays are run below the Km^app for the ATP for each enzyme, allowing comparison of inhibition across the panel.

In another assay the test system is endogenous TbGSK3 short. The settings on record: parasite cell extracts; cited from earlier work.
The subject of assay [1] is bloodstream form T. b. brucei. The assay is described as follows: Trypanosome proliferation assay (resazurin). In kind it is cell-based. The settings on record: Trypanosoma brucei, 72 h, concentration required to inhibit growth in culture by 50% over 72 h. How it is done: (§3) Measurement of inhibition of the proliferation of MRC5 (human lung fibroblast) cells and T. b. brucei bloodstream stage cells was performed using a modification of the cell viability assay previously described.[33] Compounds (50 μM to 0.5 nM) were incubated with 2 × 10^3 cells/well in 0.2 mL of the appropriate culture medium (MEM with 10% fetal bovine serum for MRC5 cells) in clear 96-well plates. Plates were incubated at 37 °C in the presence of 5% CO2 for 69 h. Resazurin was then added to a final concentration of 50 μM, and plates were incubated as above for a further 4 h before being read on a BioTek flx800 fluorescent plate reader.

A further assay deals with T6, Aurora B (Homo sapiens, UniProt Q96GD4).
T6 construct: purchased Division of Signal Transduction Therapy (DSTT), University of Dundee
T6 sequence (Q96GD4 whole entry): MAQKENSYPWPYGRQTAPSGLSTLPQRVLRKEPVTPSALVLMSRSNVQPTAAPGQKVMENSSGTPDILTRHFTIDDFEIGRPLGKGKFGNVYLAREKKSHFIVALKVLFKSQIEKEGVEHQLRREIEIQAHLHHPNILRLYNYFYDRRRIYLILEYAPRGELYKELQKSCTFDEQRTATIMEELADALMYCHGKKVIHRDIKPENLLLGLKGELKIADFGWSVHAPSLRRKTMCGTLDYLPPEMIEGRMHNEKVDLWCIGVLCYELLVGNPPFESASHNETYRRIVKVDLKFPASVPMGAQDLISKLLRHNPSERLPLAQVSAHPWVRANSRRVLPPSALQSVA
The assay is described as follows: Mammalian kinase profiling (DSTT panel). In kind it is biochemical. To be noted: 10 μM; average percentage of remaining activity.

The target in a further assay is T7, PKD1 (Homo sapiens, UniProt Q15139).
T7 construct: purchased Division of Signal Transduction Therapy (DSTT), University of Dundee
T7 sequence (Q15139 whole entry): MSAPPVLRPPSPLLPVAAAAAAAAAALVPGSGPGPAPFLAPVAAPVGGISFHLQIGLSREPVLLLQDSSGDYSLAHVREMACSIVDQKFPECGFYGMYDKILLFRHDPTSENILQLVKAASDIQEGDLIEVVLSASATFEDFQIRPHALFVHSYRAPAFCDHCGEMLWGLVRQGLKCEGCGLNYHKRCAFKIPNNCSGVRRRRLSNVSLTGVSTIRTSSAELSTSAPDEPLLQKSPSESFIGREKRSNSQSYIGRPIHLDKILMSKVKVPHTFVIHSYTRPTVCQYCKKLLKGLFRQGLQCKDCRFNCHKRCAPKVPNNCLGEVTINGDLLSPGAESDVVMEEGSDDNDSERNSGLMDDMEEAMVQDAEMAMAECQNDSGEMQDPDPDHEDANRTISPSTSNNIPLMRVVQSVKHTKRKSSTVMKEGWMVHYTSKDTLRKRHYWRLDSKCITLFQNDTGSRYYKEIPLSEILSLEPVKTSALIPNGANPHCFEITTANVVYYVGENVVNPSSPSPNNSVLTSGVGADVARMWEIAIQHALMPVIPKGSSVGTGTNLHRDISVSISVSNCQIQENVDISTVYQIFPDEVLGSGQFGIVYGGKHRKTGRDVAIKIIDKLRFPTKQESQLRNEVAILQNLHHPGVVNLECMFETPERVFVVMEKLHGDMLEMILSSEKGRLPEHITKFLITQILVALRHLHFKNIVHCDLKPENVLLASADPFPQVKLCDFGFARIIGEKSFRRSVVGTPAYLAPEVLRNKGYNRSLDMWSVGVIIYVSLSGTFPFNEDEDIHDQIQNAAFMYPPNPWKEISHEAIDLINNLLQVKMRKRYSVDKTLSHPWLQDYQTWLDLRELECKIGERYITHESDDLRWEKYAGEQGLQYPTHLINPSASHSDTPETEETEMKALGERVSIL
The assay is described as follows: Mammalian kinase profiling (DSTT panel). In kind it is biochemical. To be noted: 10 μM; average percentage of remaining activity.

The next assay has as its target T8, CDK2 (Homo sapiens, UniProt P24941).
T8 construct: purchased Division of Signal Transduction Therapy (DSTT), University of Dundee
Put plainly: Mammalian kinase profiling (DSTT panel). In kind it is biochemical.

In a further assay the target is T9, GSK3b (Homo sapiens, UniProt P49841).
T9 construct: purchased Division of Signal Transduction Therapy (DSTT), University of Dundee
T9 sequence (P49841 whole entry): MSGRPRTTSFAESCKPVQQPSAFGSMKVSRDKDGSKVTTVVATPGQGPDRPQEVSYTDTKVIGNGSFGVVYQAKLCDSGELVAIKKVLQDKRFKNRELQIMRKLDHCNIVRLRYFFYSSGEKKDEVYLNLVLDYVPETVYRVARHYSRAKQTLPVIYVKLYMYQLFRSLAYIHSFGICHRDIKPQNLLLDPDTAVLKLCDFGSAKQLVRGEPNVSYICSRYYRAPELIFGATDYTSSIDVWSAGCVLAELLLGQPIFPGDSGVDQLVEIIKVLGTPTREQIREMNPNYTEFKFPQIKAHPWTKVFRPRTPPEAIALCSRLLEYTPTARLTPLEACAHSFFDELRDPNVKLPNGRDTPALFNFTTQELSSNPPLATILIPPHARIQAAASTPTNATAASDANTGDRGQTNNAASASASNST
The assay is described as follows: Mammalian kinase profiling (DSTT panel). To be noted: read-out: inhibition of GSK3β. In kind it is biochemical.

The next assay relates to MRC5 cells. Put plainly: MRC5 proliferation assay (resazurin). The format is cell-based, human. To be noted: T. b. brucei versus MRC5 EC50. As to the method: as §3
On the technique in general: The colour change of resazurin is a common sign of viable cells or microbes.

A further assay deals with AMPK. Put plainly: Mammalian kinase profiling (DSTT panel). The format is biochemical, human. To be noted: 10 μM; average percentage of remaining activity. As to the method: as §1, §2
For a further assay, the target named is T10, PKBa (Homo sapiens, UniProt P31749).
T10 construct: purchased Division of Signal Transduction Therapy (DSTT), University of Dundee
Put plainly: Mammalian kinase profiling (DSTT panel). In kind it is biochemical. The settings on record: average percentage of remaining activity, read-out: PKBa activity compared to the control.

In another assay the target is T11, RSK2 (Homo sapiens, UniProt P51812).
T11 construct: purchased Division of Signal Transduction Therapy (DSTT), University of Dundee
Put plainly: Mammalian kinase profiling (DSTT panel). In kind it is biochemical. The settings on record: 10 μM; average percentage of remaining activity.

The next assay deals with T12, PRK2 (Homo sapiens, UniProt Q16513).
T12 construct: purchased Division of Signal Transduction Therapy (DSTT), University of Dundee
The assay is described as follows: Mammalian kinase profiling (DSTT panel). The settings on record: 10 μM; average percentage of remaining activity. The format is biochemical.

T4 sequence (P11362 22-822): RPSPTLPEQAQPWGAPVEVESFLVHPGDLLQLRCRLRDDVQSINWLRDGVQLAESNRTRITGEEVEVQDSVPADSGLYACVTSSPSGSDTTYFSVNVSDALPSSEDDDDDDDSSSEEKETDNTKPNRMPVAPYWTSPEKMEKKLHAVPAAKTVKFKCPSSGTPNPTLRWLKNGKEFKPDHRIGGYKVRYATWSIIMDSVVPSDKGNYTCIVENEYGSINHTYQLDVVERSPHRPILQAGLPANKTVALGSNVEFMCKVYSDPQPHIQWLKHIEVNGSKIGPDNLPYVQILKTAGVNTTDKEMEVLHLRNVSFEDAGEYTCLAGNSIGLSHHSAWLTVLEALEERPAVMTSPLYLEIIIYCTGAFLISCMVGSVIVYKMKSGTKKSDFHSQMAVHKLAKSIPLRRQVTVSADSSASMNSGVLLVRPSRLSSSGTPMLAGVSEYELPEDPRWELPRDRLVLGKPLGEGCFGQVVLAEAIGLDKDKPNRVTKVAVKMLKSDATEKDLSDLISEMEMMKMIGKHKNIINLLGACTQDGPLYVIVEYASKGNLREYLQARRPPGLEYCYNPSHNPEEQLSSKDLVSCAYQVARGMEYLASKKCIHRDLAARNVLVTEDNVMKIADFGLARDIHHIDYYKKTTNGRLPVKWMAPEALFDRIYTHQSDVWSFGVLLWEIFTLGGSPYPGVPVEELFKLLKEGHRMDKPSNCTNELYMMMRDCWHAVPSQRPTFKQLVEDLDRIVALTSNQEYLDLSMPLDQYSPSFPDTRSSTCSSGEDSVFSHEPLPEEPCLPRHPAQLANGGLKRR
T1 sequence (Q9UHD2 whole entry): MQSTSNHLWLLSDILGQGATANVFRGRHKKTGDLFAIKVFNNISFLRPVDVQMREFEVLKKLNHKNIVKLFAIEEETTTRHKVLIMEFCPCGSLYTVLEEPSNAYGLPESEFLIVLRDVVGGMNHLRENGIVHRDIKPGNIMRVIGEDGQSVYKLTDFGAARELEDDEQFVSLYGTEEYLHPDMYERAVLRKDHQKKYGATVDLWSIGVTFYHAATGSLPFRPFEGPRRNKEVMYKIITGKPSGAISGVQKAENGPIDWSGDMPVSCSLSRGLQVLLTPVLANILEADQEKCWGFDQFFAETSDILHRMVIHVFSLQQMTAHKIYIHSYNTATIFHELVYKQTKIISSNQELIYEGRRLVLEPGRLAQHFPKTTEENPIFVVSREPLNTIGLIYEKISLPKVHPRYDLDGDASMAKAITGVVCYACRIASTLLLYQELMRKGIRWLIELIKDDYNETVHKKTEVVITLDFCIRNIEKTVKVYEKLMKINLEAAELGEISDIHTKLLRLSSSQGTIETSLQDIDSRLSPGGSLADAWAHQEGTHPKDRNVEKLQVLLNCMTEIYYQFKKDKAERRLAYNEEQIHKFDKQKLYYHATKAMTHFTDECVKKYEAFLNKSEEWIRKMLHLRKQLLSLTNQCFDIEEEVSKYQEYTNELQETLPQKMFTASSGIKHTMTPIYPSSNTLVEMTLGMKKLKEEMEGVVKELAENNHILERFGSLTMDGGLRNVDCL
T3 sequence (Q15759 whole entry): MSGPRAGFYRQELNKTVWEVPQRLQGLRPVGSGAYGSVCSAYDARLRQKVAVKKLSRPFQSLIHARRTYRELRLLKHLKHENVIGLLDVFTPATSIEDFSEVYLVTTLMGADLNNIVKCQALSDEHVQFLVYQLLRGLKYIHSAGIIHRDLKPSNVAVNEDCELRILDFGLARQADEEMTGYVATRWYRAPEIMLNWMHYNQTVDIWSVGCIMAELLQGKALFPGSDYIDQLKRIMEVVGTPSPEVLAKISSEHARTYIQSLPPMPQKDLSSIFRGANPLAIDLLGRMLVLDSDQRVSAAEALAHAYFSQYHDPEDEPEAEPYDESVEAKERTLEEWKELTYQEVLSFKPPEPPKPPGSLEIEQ

With `CO[C@H]1CC[C@H](NC(=O)c2n[nH]cc2NC(=O)c2ccccc2)CC1` [Compound 4f, 4-Benzamido-N-(4-methoxycyclohexyl)-1H-pyrazole-3-carboxamide], the “ratio HsCDK2/TbGSK3” value on HsCDK2/cyclin A was under 1.6. Also, on TBK1, the “TBK1 activity compared to the control” value stood at 63%. Further, the “CSK activity compared to the control” value on CSK is listed as 85%. For the same compound, at P38b MAPK, the “P38b MAPK activity compared to the control” value was determined as 74%. Also, the “FGF-R1 activity compared to the control” value on FGF-R1 is 99%. At IKKe, the “IKKe activity compared to the control” value is listed as 62%. In the assay on panel of 80 human PKs, the “number of PKs inhibited by more than 80%” value is on record as “seven”.

Take `COc1cccc(OC)c1C(=O)Nc1c[nH]nc1C(=O)NC1CCC(OC)CC1` (centres unmarked) [Compound 4m, 4-(2,6-Dimethoxybenzamido)-N-(4-methoxycyclohexyl)-1H-pyrazole-3-carboxamide]: the “affinity for endogenous TbGSK3 short” value in the assay with endogenous TbGSK3 short is listed as “nanomolar affinity”. In assay [1], the EC50 is under 1000 nM. For the same compound, the “Aurora B activity compared to the control” value at Aurora B turned out to be 87%. The “PKD1 activity compared to the control” value on PKD1 came to 59%. For the same compound, the inhibition at 10 µM on CDK2 and at GSK3b was over 80% each time. Moreover, the “number of PKs inhibited by more than 80%” value in the assay on panel of 80 human PKs is reported as “two”. Besides, the “selectivity over MRC5 cells” value with MRC5 cells was 60 fold. In addition, in the assay on AMPK, the “AMPK activity compared to the control” value is reported as 88%.

As for `CO[C@H]1CC[C@H](NC(=O)c2n[nH]cc2NC(=O)c2ccc(-c3ccccc3)o2)CC1` [Compound 4y, N-(4-Methoxycyclohexyl)-4-(5-phenylfuran-2-carboxamido)-1H-pyrazole-3-carboxamide], the “TBK1 activity compared to the control” value at TBK1 stood at 73%. Further, the remaining activity at 10 µM at PKBa stood at 86%. Further, on CSK, the “CSK activity compared to the control” value amounted to 73%. The “Aurora B activity compared to the control” value at Aurora B worked out at 47%. The “FGF-R1 activity compared to the control” value at FGF-R1 was 72%. Further, the “RSK2 activity compared to the control” value at RSK2 is recorded as 93%. Also, at PKD1, the “PKD1 activity compared to the control” value stood at 59%. The “PRK2 activity compared to the control” value at PRK2 is listed as 65%. In addition, on IKKe, the “IKKe activity compared to the control” value amounted to 46%. Besides, the “AMPK activity compared to the control” value in the assay on AMPK came out at 49%.

What is called inhibition is the change of the read-out against control, counted positive when it falls.
